Laboratory results: PMC6923382, “Small molecules that inhibit TNF signalling by stabilising an asymmetric form of the trimer” (Nature Communications, 2019)
Like-named read-outs stand apart in the source and are kept apart here.

Columns and labels:
[1] = Blood exposure of UCB-9260 in the mouse models; type: in vivo; conditions: mouse, blood
TNF = TNF (Homo sapiens, UniProt P01375); test: Biacore kinetics of binding; design: Human TNF (CID2043, UniProt P01375 residues 77–233); 6XHis-Smt3 (N, cleaved yes); host or cells: E. coli TOP10; conditions: SPR single-cycle; linked TNF with n-terminal HKH tag; read-out: KD
Method: Surface plasmon resonance using a Biacore T100/T200 was used to measure the association rate constant (ka), the dissociation rate constant (kd) and the affinity (KD) of compounds. TNF (VCID 2043 Beryllium) was immobilised to approximately 5 kRU as described above and equilibrated for at least 5 h in HBS P + buffer with 5% DMSO. UCB-6876 was serially diluted from 187.5 µM, flowing over the immobilised TNF at 50 µL/min for 3 min before allowing full dissociation under flow for at least 6 min. […] […] The compounds were allowed to dissociate for 2 h under flow.

mouse TNF = biological target: T1, mouse TNF (Mus musculus, UniProt P06804); test: TNF L929 cytotoxicity assay, mouse TNF; type: cell-based; conditions: for Luminescence units: Mouse TNF, L929
T1 construct: stabilise an asymmetrical form of the soluble TNF trimer
T1 sequence (P06804 80-235 limits assumed): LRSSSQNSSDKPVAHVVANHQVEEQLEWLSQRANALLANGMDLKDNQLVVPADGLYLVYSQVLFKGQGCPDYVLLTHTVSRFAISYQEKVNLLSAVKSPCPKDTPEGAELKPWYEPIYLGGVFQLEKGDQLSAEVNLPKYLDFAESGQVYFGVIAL
Method: TNF (human or mouse) kills L929 cells which have been compromised by incubation with a sub-lethal concentration of actinomycin D, and this effect is inhibited with TNF biologics. Compounds were titrated in DMSO, and then pre-incubated with human or mouse TNF for 1 h. L929 cells (ECACC, #85011425) in media containing actinomycin D (2 µg/mL) were added to the TNF inhibitor mixture and incubated for 18 h. L929 cytotoxicity was measured by the addition of CellTitreGlo (Promega). Luminescence was measured after an incubation of at least 20 min in the dark. Percentage inhibition was calculated between unstimulated wells (maximum signal), and wells with TNF, DMSO and actinomycin D (minimum signal). The IC50 was calculated as the point of inflexion for a 4PL fitted curve. Mean IC50s are reported as a mean of at least two experiments. Cells were described as mycoplasma-free when purchased and were tested using Mycoalert (Lonza) after each batch of assay vial preparation.

Sequence of TNF (P01375 with tags, fused parts or gaps): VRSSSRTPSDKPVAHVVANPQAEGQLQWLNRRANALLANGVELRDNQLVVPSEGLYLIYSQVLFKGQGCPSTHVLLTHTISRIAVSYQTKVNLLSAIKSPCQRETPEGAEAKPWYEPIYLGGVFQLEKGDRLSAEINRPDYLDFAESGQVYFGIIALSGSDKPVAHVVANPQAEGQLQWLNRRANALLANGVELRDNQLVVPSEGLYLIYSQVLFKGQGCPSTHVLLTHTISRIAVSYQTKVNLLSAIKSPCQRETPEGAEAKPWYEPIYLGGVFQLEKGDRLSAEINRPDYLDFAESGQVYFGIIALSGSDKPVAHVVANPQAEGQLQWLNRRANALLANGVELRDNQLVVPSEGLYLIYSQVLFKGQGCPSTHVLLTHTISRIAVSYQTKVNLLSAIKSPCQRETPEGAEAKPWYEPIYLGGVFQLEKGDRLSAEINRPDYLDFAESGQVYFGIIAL

Molecule `Cc1ccc(C)c(Cn2c(C(O)c3ccncc3)nc3ccc(-c4cnn(C)c4)cc32)c1` (centres unmarked) [UCB-9260] has a concentration at 0.5 h ([1]; Balb/c, oral, 100 mg/kg, 100 mg/kg p.o., mouse TNF neutrophilia model, Fu 2.4%, read-out: Blood concentration 0.5h post dose (free)) of 1350 nM, a concentration at 0.5 h ([1]; Balb/c, oral, 100 mg/kg, 100 mg/kg p.o., mouse TNF neutrophilia model, mean ± s.e.m., read-out: Blood concentration 0.5h post dose total) of 56100 nM and a concentration at 0.5 h ([1]; Balb/c, oral, 100 mg/kg, human TNF neutrophilia model, individual mice, 0.5h post dose, read-out: Total exposure) of 29100 nM. For the same molecule, the concentration at 0.5 h ([1]; Balb/c, oral, 100 mg/kg, human TNF neutrophilia model, individual mice, read-out: Free exposure) was 886 nM, the concentration at 0.5 h ([1]; Balb/c, oral, 300 mg/kg, 300 mg/kg p.o., human TNF neutrophilia model, Fu 2.4%, read-out: Blood concentration 0.5h post dose (free)) was 1190 nM and the concentration at 0.5 h ([1]; Balb/c, oral, 300 mg/kg, 300 mg/kg p.o., human TNF neutrophilia model, mean n=3 ± s.e.m., read-out: Blood concentration 0.5h post dose total) was 49500 nM. It also gave a concentration at 0.5 h ([1]; Balb/c, oral, 300 mg/kg, 300 mg/kg p.o., mouse TNF neutrophilia model, Fu 2.4%, read-out: Blood concentration 0.5h post dose (free)) of 1270 nM, a concentration at 0.5 h ([1]; Balb/c, oral, 300 mg/kg, 300 mg/kg p.o., mouse TNF neutrophilia model, mean n=3 ± s.e.m., read-out: Blood concentration 0.5h post dose total) of 53000 nM and a concentration at 0.5 h ([1]; Balb/c, oral, 300 mg/kg, human TNF neutrophilia model, individual mice, 0.5h post dose, read-out: Total exposure) of 41500 nM. For the same molecule, the concentration at 0.5 h ([1]; Balb/c, oral, 300 mg/kg, human TNF neutrophilia model, individual mice, read-out: Free exposure) was 1190 nM, the concentration at 0.5 h ([1]; Balb/c, oral, 300 mg/kg, mouse TNF neutrophilia model, individual mice, 0.5h post dose, read-out: Total exposure) was 63000 nM and the concentration at 0.5 h ([1]; Balb/c, oral, 300 mg/kg, mouse TNF neutrophilia model, individual mice, read-out: Free exposure) was 1170 nM. The concentration at 1 h ([1]; male, Balb/c, oral, 10 mg/kg, 10 mg/kg p.o., zymosan model, Fu 2.4%, read-out: Blood concentration 1h post dose (free)) was 2 ± 0.4 nM, the concentration at 1 h ([1]; male, Balb/c, oral, 10 mg/kg, 10 mg/kg p.o., zymosan model, mean n=8 ± s.e.m., read-out: Blood concentration 1h post dose (total)) was 86 ± 15 nM and the concentration at 1 h ([1]; male, Balb/c, oral, 30 mg/kg, 30 mg/kg p.o., zymosan model, Fu 2.4%, read-out: Blood concentration 1h post dose (free)) was 70 ± 7 nM. It also gave a concentration at 1 h ([1]; male, Balb/c, oral, 30 mg/kg, 30 mg/kg p.o., zymosan model, mean n=8 ± s.e.m., read-out: Blood concentration 1h post dose (total)) of 2900 nM, a concentration at 1 h ([1]; male, Balb/c, oral, 30 mg/kg, zymosan model, individual mice, read-out: free exposure 1h post dose) of 46.8 nM and a concentration at 1 h ([1]; male, Balb/c, oral, 30 mg/kg, zymosan model, individual mice, read-out: total exposure 1h post dose) of 1950 nM. For the same molecule, the concentration at 1 h ([1]; male, Balb/c, oral, 100 mg/kg, 100 mg/kg p.o., zymosan model, Fu 2.4%, read-out: Blood concentration 1h post dose (free)) was 630 ± 98 nM, the concentration at 1 h ([1]; male, Balb/c, oral, 100 mg/kg, 100 mg/kg p.o., zymosan model, mean n=8 ± s.e.m., read-out: Blood concentration 1h post dose (total)) was 26300 nM and the concentration at 1 h ([1]; male, Balb/c, oral, 300 mg/kg, 300 mg/kg p.o., zymosan model, Fu 2.4%, read-out: Blood concentration 1h post dose (free)) was 677 ± 121 nM. For the same molecule, the concentration at 1 h ([1]; male, Balb/c, oral, 300 mg/kg, 300 mg/kg p.o., zymosan model, mean n=8 ± s.e.m., read-out: Blood concentration 1h post dose (total)) was 28200 nM, the concentration at 1 h ([1]; 150 mg/kg, 150 mg/kg B.I.D., CAIA model, mean ± s.e.m., read-out: Blood concentration total, 1h post dose) was 17300 nM and the concentration at 6 h ([1]; 150 mg/kg, 150 mg/kg B.I.D., CAIA model, mean ± s.e.m., read-out: Blood concentration total, 6h post dose) was 9970 nM. It also gave a concentration at 1 h ([1]; 150 mg/kg, 150 mg/kg B.I.D., CAIA model, read-out: Blood concentration (free), 1h post dose) of 415 ± 100 nM, a concentration at 6 h ([1]; 150 mg/kg, 150 mg/kg B.I.D., CAIA model, read-out: Blood concentration (free), 6h post dose) of 239 ± 101 nM and a concentration at 0.5 h ([1]; oral, 10 mg/kg, 10 mg/kg p.o., human TNF neutrophilia model, Fu 2.4%, read-out: Blood concentration 0.5h post dose (free)) of 20 ± 4 nM. For the same molecule, the concentration at 0.5 h ([1]; oral, 30 mg/kg, 30 mg/kg p.o., human TNF neutrophilia model, Fu 2.4%, read-out: Blood concentration 0.5h post dose (free)) was 203 ± 59 nM, the concentration at 0.5 h ([1]; oral, 30 mg/kg, 30 mg/kg p.o., human TNF neutrophilia model, mean n=3 ± s.e.m., read-out: Blood concentration 0.5h post dose total) was 8460 nM and the Kd (TNF) was 13 nM. It also gave a Luminescence units (mouse TNF; compound -logM 4.6) of 12797 Luminescence units, a Luminescence units (mouse TNF; compound -logM 5.08) of 13525 Luminescence units and a Luminescence units (mouse TNF; compound -logM 5.56) of 13101 Luminescence units. For the same molecule, the Luminescence units (mouse TNF; compound -logM 6.03) was 12546 Luminescence units, the Luminescence units (mouse TNF; compound -logM 6.51) was 10886 Luminescence units and the Luminescence units (mouse TNF; compound -logM 6.99) was 9129 Luminescence units. It also gave a Luminescence units (mouse TNF; compound -logM 7.46) of 7403 Luminescence units, a Luminescence units (mouse TNF; compound -logM 7.94) of 7468 Luminescence units and a Luminescence units (mouse TNF; compound -logM 8.42) of 7718 Luminescence units. For the same molecule, the Luminescence units (mouse TNF; compound -logM 8.9) was 5980 Luminescence units and the IC50 (mouse TNF; mouse TNF, mouse L929 cells + actinomycin D, read-out: geometric mean IC50, TNF-dependent cytotoxicity) was 120 nM.
